Measured values taken from PubChem BioAssay (NCI).
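Where inhibition never reached the appropriate level, the endpoint shown equals the highest concentration tested. Otherwise, values were interpolated linearly from a five-concentration, 48-hour dose response in 96-well plates. At the GI50, growth is halved. The concentration for full growth arrest is given as TGI.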

Experiments:
Test in all cases: DTP human tumour cell line panel, 48 h
NCI-H23 lung = test system: NCI-H23 lung
RPMI-8226 leukemia = test system: RPMI-8226 leukemia
MOLT-4 leukemia = test system: MOLT-4 leukemia
SR leukemia = test system: SR leukemia
HT29 colon = test system: HT29 colon
M14 melanoma = test system: M14 melanoma
KM12 colon = test system: KM12 colon
A498 renal = test system: A498 renal
SNB-75 CNS = test system: SNB-75 CNS
NCI/ADR-RES ovarian = test system: NCI/ADR-RES ovarian
HS 578T breast = test system: HS 578T breast
COLO 205 colon = test system: COLO 205 colon
NCI-H460 lung = test system: NCI-H460 lung
OVCAR-3 ovarian = test system: OVCAR-3 ovarian
CCRF-CEM leukemia = test system: CCRF-CEM leukemia
SW-620 colon = test system: SW-620 colon
EKVX NSCLC = test system: EKVX NSCLC
NCI-H522 lung = test system: NCI-H522 lung
HCT-116 colon = test system: HCT-116 colon
NCI-H226 lung = test system: NCI-H226 lung
HCT-15 colon = test system: HCT-15 colon
OVCAR-5 ovarian = test system: OVCAR-5 ovarian
HOP-62 NSCLC = test system: HOP-62 NSCLC
LOX IMVI melanoma = test system: LOX IMVI melanoma
SK-MEL-5 melanoma = test system: SK-MEL-5 melanoma
BT-549 breast = test system: BT-549 breast
SF-268 CNS = test system: SF-268 CNS
K-562 leukemia = test system: K-562 leukemia
UO-31 renal = test system: UO-31 renal
PC-3 prostate = test system: PC-3 prostate
T-47D breast = test system: T-47D breast
UACC-257 melanoma = test system: UACC-257 melanoma
786-0 renal = test system: 786-0 renal
OVCAR-8 ovarian = test system: OVCAR-8 ovarian
TK-10 renal = test system: TK-10 renal
SNB-19 CNS = test system: SNB-19 CNS
IGROV1 ovarian = test system: IGROV1 ovarian
CAKI-1 renal = test system: CAKI-1 renal
HOP-92 NSCLC = test system: HOP-92 NSCLC
HCC-2998 colon = test system: HCC-2998 colon
SN12C renal = test system: SN12C renal
ACHN renal = test system: ACHN renal
SF-539 CNS = test system: SF-539 CNS
SK-MEL-2 melanoma = test system: SK-MEL-2 melanoma
HL-60(TB) leukemia = test system: HL-60(TB) leukemia
SF-295 CNS = test system: SF-295 CNS
MDA-MB-231 breast = test system: MDA-MB-231 breast
MCF7 breast = test system: MCF7 breast
DU-145 prostate = test system: DU-145 prostate
MALME-3M melanoma = test system: MALME-3M melanoma
SK-MEL-28 melanoma = test system: SK-MEL-28 melanoma
OVCAR-4 ovarian = test system: OVCAR-4 ovarian
SK-OV-3 ovarian = test system: SK-OV-3 ovarian
U251 CNS = test system: U251 CNS
A549 NSCLC = test system: A549 NSCLC
UACC-62 melanoma = test system: UACC-62 melanoma

O=C(N/N=C/c1cccs1)c1[nH]c2ccc(Br)cc2c1-c1ccccc1
GI50 (NCI-H23 lung): 88.3 nM
TGI (NCI-H23 lung): > 100 µM
GI50 (RPMI-8226 leukemia): 54.2 nM
TGI (RPMI-8226 leukemia): > 76.5 µM
GI50 (MOLT-4 leukemia): 152 nM
TGI (MOLT-4 leukemia): > 100 µM
GI50 (SR leukemia): 41.2 nM
TGI (SR leukemia): > 100 µM
GI50 (HT29 colon): 36.8 nM
TGI (HT29 colon): 1570 nM
GI50 (M14 melanoma): 69.9 nM
TGI (M14 melanoma): > 100 µM
GI50 (KM12 colon): 152 nM
TGI (KM12 colon): > 100 µM
GI50 (A498 renal): > 83.8 µM
TGI (A498 renal): > 100 µM
GI50 (SNB-75 CNS): 226 nM
TGI (SNB-75 CNS): 8.49 µM
GI50 (NCI/ADR-RES ovarian): 39.2 nM
GI50 (HS 578T breast): 65.7 nM
TGI (HS 578T breast): > 100 µM
GI50 (COLO 205 colon): 152 nM
TGI (COLO 205 colon): 320 nM
GI50 (NCI-H460 lung): 65.7 nM
TGI (NCI-H460 lung): 3.22 µM
GI50 (OVCAR-3 ovarian): 63.7 nM
TGI (OVCAR-3 ovarian): > 72.9 µM
GI50 (CCRF-CEM leukemia): 61.9 nM
TGI (CCRF-CEM leukemia): > 100 µM
GI50 (SW-620 colon): 40.5 nM
TGI (SW-620 colon): > 100 µM
GI50 (EKVX NSCLC): 2200 nM
TGI (EKVX NSCLC): > 100 µM
GI50 (NCI-H522 lung): 24.2 nM
TGI (NCI-H522 lung): 80.9 nM
GI50 (HCT-116 colon): 34.5 nM
TGI (HCT-116 colon): > 100 µM
GI50 (NCI-H226 lung): 240 nM
TGI (NCI-H226 lung): > 100 µM
GI50 (HCT-15 colon): 41.8 nM
TGI (HCT-15 colon): > 57.2 µM
GI50 (OVCAR-5 ovarian): 109 nM
TGI (OVCAR-5 ovarian): > 100 µM
GI50 (HOP-62 NSCLC): 150 nM
TGI (HOP-62 NSCLC): > 93.4 µM
GI50 (LOX IMVI melanoma): 34.7 nM
TGI (LOX IMVI melanoma): 22.8 µM
GI50 (SK-MEL-5 melanoma): 63.8 nM
TGI (SK-MEL-5 melanoma): 230 nM
GI50 (BT-549 breast): 97.6 nM
TGI (BT-549 breast): 474 nM
GI50 (SF-268 CNS): 404 nM
TGI (SF-268 CNS): > 100 µM
GI50 (K-562 leukemia): 36.7 nM
TGI (K-562 leukemia): > 100 µM
GI50 (UO-31 renal): 120 nM
TGI (UO-31 renal): > 100 µM
GI50 (PC-3 prostate): 224 nM
TGI (PC-3 prostate): > 100 µM
GI50 (T-47D breast): 8.84 µM
TGI (T-47D breast): > 100 µM
GI50 (UACC-257 melanoma): 297 nM
TGI (UACC-257 melanoma): > 100 µM
GI50 (786-0 renal): 186 nM
TGI (786-0 renal): > 100 µM
GI50 (OVCAR-8 ovarian): 44.2 nM
GI50 (TK-10 renal): 5.74 µM
TGI (TK-10 renal): > 100 µM
GI50 (SNB-19 CNS): 124 nM
TGI (SNB-19 CNS): > 100 µM
GI50 (IGROV1 ovarian): 81.8 nM
TGI (IGROV1 ovarian): > 100 µM
GI50 (CAKI-1 renal): 153 nM
TGI (CAKI-1 renal): > 100 µM
GI50 (HOP-92 NSCLC): 1120 nM
TGI (HOP-92 NSCLC): > 100 µM
GI50 (HCC-2998 colon): 142 nM
TGI (HCC-2998 colon): 43.3 µM
GI50 (SN12C renal): 72.8 nM
TGI (SN12C renal): > 51.2 µM
GI50 (ACHN renal): 103 nM
TGI (ACHN renal): > 82.9 µM
GI50 (SF-539 CNS): 28.3 nM
TGI (SF-539 CNS): 115 nM
GI50 (SK-MEL-2 melanoma): 150 nM
TGI (SK-MEL-2 melanoma): > 100 µM
GI50 (HL-60(TB) leukemia): 86.8 nM
TGI (HL-60(TB) leukemia): 358 nM
GI50 (SF-295 CNS): 39.2 nM
TGI (SF-295 CNS): 39.6 µM
GI50 (MDA-MB-231 breast): 128 nM
TGI (MDA-MB-231 breast): 687 nM
GI50 (MCF7 breast): 37.4 nM
TGI (MCF7 breast): > 35.5 µM
GI50 (DU-145 prostate): 63 nM
TGI (DU-145 prostate): > 100 µM
GI50 (MALME-3M melanoma): 179 nM
TGI (MALME-3M melanoma): > 100 µM
GI50 (SK-MEL-28 melanoma): 612 nM
TGI (SK-MEL-28 melanoma): > 100 µM
GI50 (OVCAR-4 ovarian): 340 nM
TGI (OVCAR-4 ovarian): > 100 µM
GI50 (SK-OV-3 ovarian): 345 nM
TGI (SK-OV-3 ovarian): > 100 µM
GI50 (U251 CNS): 74.6 nM
TGI (U251 CNS): > 100 µM
GI50 (A549 NSCLC): 125 nM
TGI (A549 NSCLC): > 100 µM
GI50 (UACC-62 melanoma): 51.6 nM
TGI (UACC-62 melanoma): > 100 µM
